According to PubChem BioAssay (NCI):
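Five compound concentrations were applied to cells in 96-well plates for 48 hours; endpoints were derived by simple linear interpolation of the resulting dose-response curve. At the GI50, growth is halved. At the TGI there is no net growth.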

Key:
Experiment in all cases: NCI anticancer screen, dose series, 48 h
IGROV1 ovarian = tested on: IGROV1 ovarian
HCC-2998 colon = tested on: HCC-2998 colon
OVCAR-3 ovarian = tested on: OVCAR-3 ovarian
RPMI-8226 leukemia = tested on: RPMI-8226 leukemia
OVCAR-4 ovarian = tested on: OVCAR-4 ovarian
LOX IMVI melanoma = tested on: LOX IMVI melanoma
SK-MEL-5 melanoma = tested on: SK-MEL-5 melanoma
OVCAR-5 ovarian = tested on: OVCAR-5 ovarian
NCI-H522 lung = tested on: NCI-H522 lung
HCT-15 colon = tested on: HCT-15 colon
CCRF-CEM leukemia = tested on: CCRF-CEM leukemia
TK-10 renal = tested on: TK-10 renal
SK-OV-3 ovarian = tested on: SK-OV-3 ovarian
PC-3 prostate = tested on: PC-3 prostate
MDA-MB-435 = tested on: MDA-MB-435
COLO 205 colon = tested on: COLO 205 colon
UACC-257 melanoma = tested on: UACC-257 melanoma
786-0 renal = tested on: 786-0 renal
NCI-H23 lung = tested on: NCI-H23 lung
A549 NSCLC = tested on: A549 NSCLC
SNB-75 CNS = tested on: SNB-75 CNS
SW-620 colon = tested on: SW-620 colon
SF-268 CNS = tested on: SF-268 CNS
ACHN renal = tested on: ACHN renal
K-562 leukemia = tested on: K-562 leukemia
OVCAR-8 ovarian = tested on: OVCAR-8 ovarian
UACC-62 melanoma = tested on: UACC-62 melanoma
RXF 393 renal = tested on: RXF 393 renal
EKVX NSCLC = tested on: EKVX NSCLC
HOP-92 NSCLC = tested on: HOP-92 NSCLC
M14 melanoma = tested on: M14 melanoma
MDA-MB-468 breast = tested on: MDA-MB-468 breast
DU-145 prostate = tested on: DU-145 prostate
T-47D breast = tested on: T-47D breast
NCI/ADR-RES ovarian = tested on: NCI/ADR-RES ovarian
CAKI-1 renal = tested on: CAKI-1 renal
HS 578T breast = tested on: HS 578T breast
NCI-H226 lung = tested on: NCI-H226 lung
A498 renal = tested on: A498 renal
SN12C renal = tested on: SN12C renal
SK-MEL-2 melanoma = tested on: SK-MEL-2 melanoma
HL-60(TB) leukemia = tested on: HL-60(TB) leukemia
HOP-62 NSCLC = tested on: HOP-62 NSCLC
HT29 colon = tested on: HT29 colon
MCF7 breast = tested on: MCF7 breast
HCT-116 colon = tested on: HCT-116 colon
SNB-19 CNS = tested on: SNB-19 CNS
MALME-3M melanoma = tested on: MALME-3M melanoma
SF-295 CNS = tested on: SF-295 CNS
BT-549 breast = tested on: BT-549 breast
MOLT-4 leukemia = tested on: MOLT-4 leukemia
U251 CNS = tested on: U251 CNS
NCI-H460 lung = tested on: NCI-H460 lung
KM12 colon = tested on: KM12 colon
SK-MEL-28 melanoma = tested on: SK-MEL-28 melanoma
SF-539 CNS = tested on: SF-539 CNS

`CCCCCCCCCCCCCCCCCCCC(=O)NCCc1c[nH]c2ccc(OC(=O)NOCCOCCOCCOCCOCCOCCOCCOCCOCCOCCOCCOCCOCCOCCOCCOCCOCCOCCOCCOCCOCCOCCOC)cc12` gave a GI50 (IGROV1 ovarian) of 21.4 µM, a TGI (IGROV1 ovarian) of 57.1 µM and a GI50 (HCC-2998 colon) of 15.6 µM. It also gave a TGI (HCC-2998 colon) of 30 µM, a GI50 (OVCAR-3 ovarian) of 13.2 µM and a TGI (OVCAR-3 ovarian) of 53.3 µM. The GI50 (RPMI-8226 leukemia) was 11.8 µM, the TGI (RPMI-8226 leukemia) was 37.6 µM and the GI50 (OVCAR-4 ovarian) was 18.7 µM. It also gave a TGI (OVCAR-4 ovarian) of 87.7 µM, a GI50 (LOX IMVI melanoma) of 14.9 µM and a TGI (LOX IMVI melanoma) of 28.5 µM. It also gave a GI50 (SK-MEL-5 melanoma) of 13.5 µM, a TGI (SK-MEL-5 melanoma) of 26.5 µM and a GI50 (OVCAR-5 ovarian) of 17.3 µM. It also gave a TGI (OVCAR-5 ovarian) of 41.9 µM, a GI50 (NCI-H522 lung) of 14.9 µM and a TGI (NCI-H522 lung) of 28.8 µM. It also gave a GI50 (HCT-15 colon) of 54.4 µM, a TGI (HCT-15 colon) of over 100 µM and a GI50 (CCRF-CEM leukemia) of 13.5 µM. The TGI (CCRF-CEM leukemia) was 33.8 µM, the GI50 (TK-10 renal) was 19.5 µM and the TGI (TK-10 renal) was 56.1 µM. It also gave a GI50 (SK-OV-3 ovarian) of 19.1 µM, a TGI (SK-OV-3 ovarian) of 41.3 µM and a GI50 (PC-3 prostate) of 18.3 µM. The TGI (PC-3 prostate) was 70.9 µM, the GI50 (MDA-MB-435) was 20.6 µM and the TGI (MDA-MB-435) was 48.6 µM. It also gave a GI50 (COLO 205 colon) of 16.6 µM, a TGI (COLO 205 colon) of 30.9 µM and a GI50 (UACC-257 melanoma) of 14.7 µM. For the same compound, the TGI (UACC-257 melanoma) was 30.2 µM, the GI50 (786-0 renal) was 31 µM and the TGI (786-0 renal) was 89 µM. For the same compound, the GI50 (NCI-H23 lung) was 19.9 µM, the TGI (NCI-H23 lung) was 46.2 µM and the GI50 (A549 NSCLC) was 17.7 µM. It also gave a TGI (A549 NSCLC) of 47.9 µM, a GI50 (SNB-75 CNS) of 26.9 µM and a TGI (SNB-75 CNS) of 86 µM. The GI50 (SW-620 colon) was 17.8 µM, the TGI (SW-620 colon) was 33.1 µM and the GI50 (SF-268 CNS) was 14.8 µM. The TGI (SF-268 CNS) was 52.7 µM, the GI50 (ACHN renal) was 45.7 µM and the TGI (ACHN renal) was over 100 µM. The GI50 (K-562 leukemia) was 17.7 µM, the TGI (K-562 leukemia) was 70.9 µM and the GI50 (OVCAR-8 ovarian) was 16.4 µM. The TGI (OVCAR-8 ovarian) was 46.2 µM, the GI50 (UACC-62 melanoma) was 17 µM and the TGI (UACC-62 melanoma) was 31.4 µM. It also gave a GI50 (RXF 393 renal) of 19.7 µM, a TGI (RXF 393 renal) of 53.6 µM and a GI50 (EKVX NSCLC) of 20.9 µM. For the same compound, the TGI (EKVX NSCLC) was 88.4 µM, the GI50 (HOP-92 NSCLC) was 6.3 µM and the TGI (HOP-92 NSCLC) was 44.7 µM. It also gave a GI50 (M14 melanoma) of 17.5 µM, a TGI (M14 melanoma) of 35.2 µM and a GI50 (MDA-MB-468 breast) of 11.9 µM. It also gave a TGI (MDA-MB-468 breast) of 26.3 µM, a GI50 (DU-145 prostate) of 28 µM and a TGI (DU-145 prostate) of over 100 µM. It also gave a GI50 (T-47D breast) of 9.98 µM, a TGI (T-47D breast) of 23.2 µM and a GI50 (NCI/ADR-RES ovarian) of over 100 µM. It also gave a TGI (NCI/ADR-RES ovarian) of over 100 µM, a GI50 (CAKI-1 renal) of over 100 µM and a TGI (CAKI-1 renal) of over 100 µM. It also gave a GI50 (HS 578T breast) of 16.6 µM, a TGI (HS 578T breast) of 41.2 µM and a GI50 (NCI-H226 lung) of 17.4 µM. It also gave a TGI (NCI-H226 lung) of 38.5 µM, a GI50 (A498 renal) of 25.9 µM and a TGI (A498 renal) of 89.9 µM. It also gave a GI50 (SN12C renal) of 15.1 µM, a TGI (SN12C renal) of 39.5 µM and a GI50 (SK-MEL-2 melanoma) of 12.8 µM. For the same compound, the TGI (SK-MEL-2 melanoma) was 26 µM, the GI50 (HL-60(TB) leukemia) was 14.4 µM and the TGI (HL-60(TB) leukemia) was 32.7 µM. For the same compound, the GI50 (HOP-62 NSCLC) was 17.8 µM, the TGI (HOP-62 NSCLC) was 36.3 µM and the GI50 (HT29 colon) was 15.6 µM. For the same compound, the TGI (HT29 colon) was 30.8 µM, the GI50 (MCF7 breast) was 11 µM and the TGI (MCF7 breast) was 28.5 µM. For the same compound, the GI50 (HCT-116 colon) was 17.4 µM, the TGI (HCT-116 colon) was 38.2 µM and the GI50 (SNB-19 CNS) was 20.3 µM. The TGI (SNB-19 CNS) was 51.7 µM, the GI50 (MALME-3M melanoma) was 14.4 µM and the TGI (MALME-3M melanoma) was 29.3 µM. For the same compound, the GI50 (SF-295 CNS) was 17.8 µM, the TGI (SF-295 CNS) was 36.7 µM and the GI50 (BT-549 breast) was 14.1 µM. It also gave a TGI (BT-549 breast) of 28.5 µM, a GI50 (MOLT-4 leukemia) of 5.32 µM and a TGI (MOLT-4 leukemia) of 24.9 µM. For the same compound, the GI50 (U251 CNS) was 16.7 µM, the TGI (U251 CNS) was 32.8 µM and the GI50 (NCI-H460 lung) was 23.4 µM. It also gave a TGI (NCI-H460 lung) of 79.4 µM, a GI50 (KM12 colon) of 19.8 µM and a TGI (KM12 colon) of 41.2 µM. For the same compound, the GI50 (SK-MEL-28 melanoma) was 15.9 µM, the TGI (SK-MEL-28 melanoma) was 33.9 µM and the GI50 (SF-539 CNS) was 17.9 µM. It also gave a TGI (SF-539 CNS) of 40 µM.
